Laboratory results published in the ASAP Discovery antiviral challenge data (2025).
Converted amounts (≈) assume the structure as drawn. “And” between values parts separate entries of the source, which are not always exact repeats. Equal entries are not always repeated.

Legend:
[1] = mdck_mdr1
[2] = human; liver_microsomes
[3] = not given; remark: listed apart in the source
[4] = mouse; liver_microsomes

NCc1cccc(NC(=O)CN(C(=O)OCc2ccccc2)c2ccc(OCc3ccccc3)cc2)c1
Papp [1]: 0.899 ×10⁻⁶ cm/s | solubility kinetic: 56 µM (≈ 27.8 µg/mL) | microsomal CLint [2]: 11 µL/min/mg | logD [3]: 2.9

CCNC(=O)c1cc2c(N[C@H](c3ccc4c(c3)S(=O)(=O)CCC4)C(C)C)ncnc2[nH]1 (single isomer, unassigned)
Papp [1]: 0.717 ×10⁻⁶ cm/s and 0.532 ×10⁻⁶ cm/s | microsomal CLint [4]: 64 µL/min/mg and 54 µL/min/mg | solubility kinetic: 337 µM and 316 µM | logD [3]: 2.7 and 2.8

O=C(Nc1ccc2c(c1)CNC2)c1cc(F)cc2[nH]c(-c3ccc(F)cc3)nc12
Papp [1]: 0.1 ×10⁻⁶ cm/s | microsomal CLint [4]: 36.8 µL/min/mg | solubility kinetic: 6 µM (≈ 2.34 µg/mL) | logD [3]: 2.9

O=C(O)c1cc(Cl)ccc1NS(=O)(=O)c1ccc(-c2ccccc2Cl)cc1
Papp [1]: 7.59 ×10⁻⁶ cm/s | solubility kinetic: 397 µM (≈ 168 µg/mL) | microsomal CLint [2]: 343 µL/min/mg | logD [3]: 3.6

O=C(Nc1ccc2c(c1)CNC2)c1cc(Cl)cc2c1cnn2C1CCC1
Papp [1]: 1 ×10⁻⁶ cm/s | microsomal CLint [4]: 13.4 µL/min/mg | solubility kinetic: 172 µM (≈ 63.1 µg/mL) | logD [3]: 2

CC(C)NC(=O)[C@H](Nc1ccc2c(c1)CNC2)c1cc(Cl)cc2[nH]c(-c3ccccc3)nc12 (racemic)
Papp [1]: 0.432 ×10⁻⁶ cm/s | solubility kinetic: 154 µM (≈ 70.8 µg/mL) | microsomal CLint [2]: 23.2 µL/min/mg | logD [3]: 2.9

CNC(=O)c1c[nH]c2ncnc(N[C@H](c3ccc4c(c3)S(=O)(=O)CCC4)C(C)C)c12 (single isomer, unassigned)
Papp [1]: 1.61 ×10⁻⁶ cm/s and 0.857 ×10⁻⁶ cm/s | solubility kinetic: 336 µM and 204 µM | microsomal CLint [2]: 258 µL/min/mg and 108 µL/min/mg | logD [3]: 2.7 and 2.6

O=C(Nc1cc(Cl)cc(C(=O)Nc2ccc3c(c2)CNC3)c1)OCc1ccccc1
Papp [1]: 1.25 ×10⁻⁶ cm/s | solubility kinetic: 35 µM (≈ 14.8 µg/mL) | microsomal CLint [2]: 12.7 µL/min/mg | logD [3]: 2.8

O=C(O)c1cc(Cl)ccc1S(=O)(=O)NC1CCN(c2nc(C3CC3)cc(C(F)(F)F)n2)CC1
Papp [1]: 3.65 ×10⁻⁶ cm/s | solubility kinetic: 380 µM (≈ 192 µg/mL) | microsomal CLint [2]: 26.3 µL/min/mg | logD [3]: 2.8

O=C(Nc1ccc2c(c1)CNC2)c1cc(F)cc2[nH]ncc12
Papp [1]: 1.59 ×10⁻⁶ cm/s | microsomal CLint [4]: 180 µL/min/mg

O=C(Nc1ccc2c(c1)CNC2)c1cc(Cl)cc2ccncc12
Papp [1]: 3.42 ×10⁻⁶ cm/s | microsomal CLint [4]: 24.5 µL/min/mg | solubility kinetic: 181 µM (≈ 58.6 µg/mL) | logD [3]: 0.6

Nc1nc(-c2ccccc2)nc2[nH]nc(Nc3ccc(C(F)(F)F)cc3)c12
Papp [1]: 1.76 ×10⁻⁶ cm/s | microsomal CLint [4]: 11.2 µL/min/mg | solubility kinetic: 2 µM (≈ 0.741 µg/mL)

O=C(Nc1cc(Cl)cc(C(=O)Nc2cccc(-n3nn[nH]c3=O)c2)c1)OCc1ccccc1
Papp [1]: 9.46 ×10⁻⁶ cm/s | solubility kinetic: 107 µM (≈ 49.7 µg/mL) | microsomal CLint [2]: 11.2 µL/min/mg | logD [3]: 3.8

O=C(Nc1cc2c(c(C3=CCS(=O)(=O)CC3)c1)CNC2)c1cc(F)cc2[nH]ncc12
Papp [1]: 1.3 ×10⁻⁶ cm/s | microsomal CLint [4]: 96.9 µL/min/mg | solubility kinetic: 141 µM (≈ 60.1 µg/mL) | logD [3]: -0.1

CC(C)[C@H](Nc1ncnc2[nH]ccc12)c1ccc2c(c1)S(=O)(=O)CCC2 (single isomer, unassigned)
Papp [1]: 5.5 ×10⁻⁶ cm/s and 3.55 ×10⁻⁶ cm/s | solubility kinetic: 374 µM and 386 µM | microsomal CLint [2]: 57 µL/min/mg and 21 µL/min/mg | logD [3]: 2.7 and 2.5

Cc1c(C(=O)Nc2cc(-c3cccnc3)ccn2)cc(C2CC2)n1C
Papp [1]: 13.5 ×10⁻⁶ cm/s | microsomal CLint [4]: 388 µL/min/mg | solubility kinetic: 176 µM (≈ 58.5 µg/mL)

COc1cc(-c2cc(NC(=O)c3cc(F)cc4[nH]ncc34)cc3c2CNC3)ccn1
Papp [1]: 0.788 ×10⁻⁶ cm/s | microsomal CLint [4]: 260 µL/min/mg | solubility kinetic: 180 µM (≈ 72.6 µg/mL) | logD [3]: 2

CC(C)[C@H](Nc1ncnc2[nH]ccc12)c1ccc2c(c1)NC(=O)CO2 (single isomer, unassigned)
Papp [1]: 3.4 ×10⁻⁶ cm/s and 8.7 ×10⁻⁶ cm/s | microsomal CLint [4]: 37 µL/min/mg and 80 µL/min/mg | solubility kinetic: 371 µM and 374 µM | logD [3]: 1.8 and 2.2

CNC(=O)c1cc2c(N[C@H](c3ccc4c(c3)S(=O)(=O)CCC4)C(C)C)ncnc2[nH]1 (single isomer, unassigned)
Papp [1]: 0.891 ×10⁻⁶ cm/s and 0.377 ×10⁻⁶ cm/s | microsomal CLint [4]: 47 µL/min/mg and 23 µL/min/mg | solubility kinetic: 374 µM and 397 µM | logD [3]: 2.3 and 2.4

O=C(Nc1cc2c(c(-c3c[nH]c(=O)c(F)c3)c1)CNC2)c1cc(F)cc2[nH]ncc12
Papp [1]: 0.651 ×10⁻⁶ cm/s | microsomal CLint [4]: 243 µL/min/mg | solubility kinetic: 66 µM (≈ 26.9 µg/mL) | logD [3]: 0.4

Cc1cc(OCc2ccccc2)ccc1NS(=O)(=O)c1ccc(Cl)cc1C(=O)O
Papp [1]: 4.61 ×10⁻⁶ cm/s | solubility kinetic: 394 µM (≈ 170 µg/mL) | microsomal CLint [2]: 22.3 µL/min/mg | logD [3]: 2.7

O=C(Nc1ccc2c(c1)CNC2)c1cc(Cl)cc2cn[nH]c12
Papp [1]: 4.63 ×10⁻⁶ cm/s | microsomal CLint [4]: 54 µL/min/mg | solubility kinetic: 184 µM (≈ 57.5 µg/mL) | logD [3]: 1.2

O=C(Nc1cc2c(cc1C1CC1)CNC2)c1cc(F)cc2[nH]ncc12
Papp [1]: 3.41 ×10⁻⁶ cm/s | microsomal CLint [4]: 86.8 µL/min/mg | solubility kinetic: 189 µM (≈ 63.6 µg/mL) | logD [3]: 0.7

CC(C)[C@H](Nc1ncnc2[nH]c(-c3cnn(CC(N)=O)c3)cc12)c1ccc2c(c1)OCCO2 (single isomer, unassigned)
Papp [1]: 1.09 ×10⁻⁶ cm/s and 1.87 ×10⁻⁶ cm/s | microsomal CLint [4]: 16 µL/min/mg and 42 µL/min/mg | solubility kinetic: 280 µM and 332 µM | logD [3]: 2.9

CCOc1cccc(-c2ccc(S(=O)(=O)Nc3ccc(Cl)cc3C(=O)O)cc2)c1
Papp [1]: 6.22 ×10⁻⁶ cm/s | solubility kinetic: 392 µM (≈ 169 µg/mL) | microsomal CLint [2]: 119 µL/min/mg | logD [3]: 2.8
